From ChEMBL document CHEMBL1142305, “The effect of flavonoid derivatives on doxorubicin transport and metabolism” (Bioorg Med Chem, 2008)
Blank lines part the entries; values can stand above or below the molecule they belong to.

What was measured:
[1] = system: MDA-MB-435; assay: Cytotoxicity against human MDA-MB-435 cells at 10 uM after 96 hrs by MTT assay; assay type: cell-based; conditions: mda-mb-435, 96 h
[2] = system: Liver; assay: Effect on doxorubicin metabolism in human liver cytosolic fractions assessed as inhibition of formation of doxorubicinol at 30 uM; assay type: ADME, subcellular; conditions: cytosol
[3] = Effect on drug uptake in human NCI-ADR-RES cells in presence of 10 uM verapamil; assay type: ADME, cell-based
[4] = Increase in drug uptake in human NCI-ADR-RES cells in presence of 100 uM verapamil; assay type: ADME, cell-based
[5] = system: MDA-MB-435; assay: Effect on drug uptake in human MDA-MB-435 cells in presence of 10 uM verapamil; assay type: ADME, cell-based
[6] = Effect on drug efflux in human NCI-ADR-RES cells at 100 nM upto 120 mins; assay type: ADME, cell-based; conditions: 2 h, 0.1 µM
[7] = system: MDA-MB-435; assay: Effect on drug efflux in human MDA-MB-435 cells at 100 nM upto 120 mins; assay type: ADME, cell-based; conditions: mda-mb-435, 2 h, 0.1 µM
[8] = system: MDA-MB-435; assay: Increase in drug uptake in human MDA-MB-435 cells in presence of 100 uM verapamil; assay type: ADME, cell-based
[9] = Inhibition of drug efflux in human NCI-ADR-RES cells at 100 nM after 120 mins in presence of 100 uM verapamil; assay type: ADME, cell-based; conditions: 2 h, 0.1 µM
[10] = system: MDA-MB-435; assay: Drug uptake in human MDA-MB-435 cells in presence of 100 uM MK-571; assay type: ADME, cell-based
[11] = system: Liver microsomes; assay: Metabolic stability in human liver microsomal fraction assessed as formation of doxorubicin aglycone after 60 mins; assay type: ADME, Microsome; conditions: 1 h
[12] = system: Liver; assay: Metabolic stability in human liver cytosolic fraction assessed as formation of doxorubicinol after 60 mins; assay type: ADME, subcellular; conditions: cytosol, 1 h
[13] = Effect on [14C]DOX efflux in human NCI-ADR-RES cells; assay type: ADME, cell-based
[14] = system: Liver; assay: Effect on doxorubicin metabolism in human liver cytosolic fractions assessed as inhibition of formation of doxorubicinol; assay type: ADME, subcellular, Cytosol
[15] = Decrease in [14C]DOX accumulation in human NCI-ADR-RES cells at 30 uM after 120 mins; assay type: ADME, cell-based; design: scale not given: the % may be the effect or the level left; conditions: 2 h

Activity [2]: Active
Compound: O=C(/C=C/c1ccc(I)cc1)c1c(O)cc(O)cc1O
Activity [1]: Toxic

Compound: COc1cc(O)c2c(c1)O/C(=C\c1ccc(Cl)cc1)C2=O
Activity [1]: Toxic

Activity [3]: Not Active | Fold change [4]: 7.6 | Activity [5]: Not Active | Activity [6]: 66% | Activity [7]: 23% | Fold change [8]: 3.7 | Activity [9]: Active | Activity [10]: Not Active
Compound: C[C@@H]1O[C@@H](O[C@H]2C[C@](O)(C(=O)CO)Cc3c(O)c4c(c(O)c32)C(=O)c2c(O[14CH3])cccc2C4=O)C[C@H](N)[C@@H]1O

Activity [2]: Active
Compound: COc1cc(O)c2c(c1)O/C(=C\c1ccccc1)C2=O
Activity [1]: Toxic

Compound: COc1cc(OC)c2c(c1)O/C(=C\c1cc(OC)c(OC)cc1OC)C2=O
Activity [1]: Toxic

Compound: CCc1ccc(/C=C2\Oc3cc(OC)cc(O)c3C2=O)cc1
Activity [1]: Toxic

Activity [11]: 4.63% | Activity [12]: 15.1%
Compound: COc1cccc2c1C(=O)c1c(O)c3c(c(O)c1C2=O)C[C@@](O)(C(=O)CO)C[C@@H]3O[C@H]1C[C@H](N)[C@H](O)[C@H](C)O1 [DOXORUBICIN]

Compound: O=C1C[C@@H](c2ccc(O)c(O)c2)Oc2cc(O)cc(O)c21 [ERIODICTYOL]
Activity [1]: Toxic

Compound: O=c1c(O)c(-c2ccc(O)c(O)c2)oc2cc(O)ccc12 [FISETIN]
Activity [1]: Toxic

Compound: O=c1c(O)c(-c2ccc(O)c(O)c2)oc2cc(O)cc(O)c12 [QUERCETIN]
Activity [1]: Toxic | Activity [13]: Not Active | IC50 [14]: 16.2 µM | Activity [15]: 51.3%
